# Measurements as given in US20240041042A1, “1-(PYRIDYL)-5-AZINYLPYRAZOLE DERIVATIVES, AND THEIR USE FOR CONTROL OF UNDESIRED PLANT GROWTH” (Bayer Aktiengesellschaft, priority 2020, published 2024).
# Assays:
# Type in all cases: in vivo
# [1] = tested on: Amaranthus retroflexus (AMARE); experiment: Post-emergence herbicidal action against AMARE
# Outline: (§1)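 Rates were 320 g/ha or below, applied as aqueous WP/EC spray with 0.5% additive (600 l/ha) onto one-leaf-stage plants. About 3 weeks later in the greenhouse, damage was scored visually against untreated plants on a 0–100% scale, where 100% means plants died.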
# [2] = tested on: Echinochloa crus-galli (ECHCG); experiment: Pre-emergence herbicidal action against ECHCG
# Outline: (§2)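 Application rates ran to 320 g/ha or lower, with several dosages tested on the same weeds. The compound, as wettable powder or emulsion concentrate, is sprayed pre-emergence onto soil over sown seeds; greenhouse growth follows, and effect is rated visually after roughly 3 weeks.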
# [3] = tested on: Alopecurus myosuroides (ALOMY); experiment: Post-emergence herbicidal action against ALOMY; details: visual rating about 3 weeks after treatment vs untreated controls (100% = plants have died, 0% = like control plants)
# Outline: as §1
# [4] = tested on: Verconica persica (VERPE); experiment: Post-emergence herbicidal action against VERPE
# Outline: as §1
# [5] = tested on: Matricaria inodora (MATIN); experiment: Pre-emergence herbicidal action against MATIN
# Outline: as §2
# Viola tricolor (VIOTR) = experiment: Post-emergence herbicidal action against VIOTR
# Outline: as §1
# [6] = tested on: Echinochloa crus-galli (ECHCG); experiment: Post-emergence herbicidal action against ECHCG
# Outline: as §1
# [7] = tested on: Amaranthus retroflexus (AMARE); experiment: Pre-emergence herbicidal action against AMARE; details: visual scoring after about 3 weeks vs untreated controls
# Outline: as §2
# Setaria viridis (SETVI) = experiment: Pre-emergence herbicidal action against SETVI
# Outline: as §2
# [8] = tested on: Pharbitis purpurea (PHBPU); experiment: Post-emergence herbicidal action against PHBPU
# Outline: as §1
# [9] = 80 g/ha, visual rating about 3 weeks after treatment vs untreated controls (100% = plants have died, 0% = like control plants)
# [10] = 320 g/ha, visual rating about 3 weeks after treatment
SMILES,"Post-emergence action against AMARE in % [1, 9]","Post-emergence action against AMARE in % [1, 10]",Pre-emergence action against ECHCG in % ([2]; dosage 80 g/ha),Pre-emergence action against ECHCG in % ([2]; dosage 320 g/ha),Post-emergence action against ALOMY in % ([3]; 80 g/ha),Post-emergence action against ALOMY in % ([3]; 320 g/ha),"Post-emergence action against VERPE in % ([4]; 320 g/ha, VERPE)",Post-emergence action against VERPE in % ([4]; dosage 80 g/ha),Pre-emergence action against MATIN in % ([5]; dosage 80 g/ha),Pre-emergence action against MATIN in % ([5]; dosage 320 g/ha),Post-emergence action against VIOTR in % (Viola tricolor (VIOTR); 80 g/ha),Post-emergence action against VIOTR in % (Viola tricolor (VIOTR); 320 g/ha),Post-emergence action against ECHCG in % ([6]; dosage 80 g/ha),Post-emergence action against ECHCG in % ([6]; dosage 320 g/ha),Pre-emergence action against AMARE in % ([7]; 80 g/ha),Pre-emergence action against AMARE in % ([7]; 320 g/ha),Pre-emergence action against SETVI in % (Setaria viridis (SETVI); dosage 80 g/ha),Pre-emergence action against SETVI in % (Setaria viridis (SETVI); dosage 320 g/ha),Post-emergence action against PHBPU in % ([8]; dosage 80 g/ha),Post-emergence action against PHBPU in % ([8]; dosage 320 g/ha)
CCOC(=O)COc1nn(-c2ncccc2F)c(-c2cncc(F)c2)c1C1CC1 [Example I-174],80%,80%,100%,100%,90%,90%,80%,80%,90%,90%,80%,80%,80%,80%,100%,100%,90%,100%,80%,90%
O=C(O)COc1nn(-c2ncccc2F)c(-c2cncc(F)c2)c1C1CC1 [Example I-175],80%,80%,100%,100%,90%,90%,80%,80%,90%,90%,80%,80%,80%,80%,100%,100%,90%,100%,80%,90%
COC(=O)COc1nn(-c2ncccc2F)c(-c2cncc(F)c2)c1C1CC1 [Example I-167],80%,80%,100%,100%,90%,90%,80%,80%,90%,90%,80%,80%,80%,80%,100%,100%,100%,100%,90%,90%
CCOC(=O)[C@@H](C)Oc1nn(-c2nc(F)ccc2F)c(-c2cncc(F)c2)c1Cl [Example I-208],–,80%,90%,100%,–,80%,80%,80%,90%,90%,80%,80%,80%,90%,90%,100%,90%,100%,80%,90%
